Measured values published in patent US5932772A, “Separation processes” (Union Carbide Chemicals & Plastics Technology Corporation, priority 1998, dated 1999).
Read-outs that look alike come from different tables or passages of the source.

Experiments:
[1] = Aldehyde partition coefficient between nonpolar and polar solvent
Protocol: The efficiency of this extraction process can be measured by a partition coefficient Kp of the one or more products which is defined as follows: [formula]
The vial was shaken vigorously, then allowed to settle. An aliquot from both phases was removed and analyzed for aldehyde via GC. Table H indicates the partition coefficient, which was determined by the ratio of the GC area for the aldehydes (sum of n and iso) in the nonpolar phase to the polar phase.
In this case, the aldehyde contained iso-heptadecanal, n-heptadecanal, and a small amount of C16 alkenes and alkanes. Table H indicates the partition coefficient.
Table H indicates the partition coefficient.
Table H indicates partition coefficient.

[2] = Ligand partition coefficient between polar solvent and hexane; format: physicochemical
[3] = Kpartition in hydroformylation catalyst mixture extracted with hexane (layers analyzed for rhodium); format: physicochemical; details: acetonitrile catalyst solution after 1-dodecene hydroformylation, 74° C, equal volume hexane
Protocol: To this solution was then charged 5 milliliters of 1-dodecene. The solution was stirred and allowed to equilibrate until no increase in pressure was observed. The reactor was then pressurized to 100 psig with H2 :CO (1:1). Pressure was maintained between 100 and 95 psig until no further reaction had occurred. At this point, the catalyst containing solution was discharged from the reactor. 1.5 milliliters of the catalyst solution was transferred to a vial. To this was added 1.5 milliliters of hexane. The mixture was vigorously shaken for several minutes, then allowed to settle and phase separate. The layers were then separated and analyzed for rhodium content.

[4] = acetonitrile/hexane, ambient temperature
[5] = summary table, acetonitrile and hexane
[6] = 2,2-dimethylbutane/acetonitrile
[7] = DMF/hexane, ambient temperature
[8] = DMSO/hexane, ambient temperature
[9] = caprolactone/hexane, ambient temperature
[10] = 3-methyl-2-oxazolidinone/hexane, ambient temperature
[11] = adiponitrile/hexane, ambient temperature

| SMILES | Kpartition [2, 4] | Kpartition [2, 5] | also measured |
| --- | --- | --- | --- |
| CCCCCCCCCCCCCCCCC=O [heptadecanal] |  |  | Kpartition (nonpolar to polar phase) ([1]; hexane/acetonitrile): 5.5 |
| OCCCP(c1ccccc1)c1ccccc1 [Ligand J] | 26 | 26 |  |
| CCCCCCCCCCCCCCC=O [pentadecanal] |  |  | Kpartition (nonpolar to polar phase) ([1]; hexane/acetonitrile): 6.8 |
| CCCCCCCCP(CCCCCCCC)CCCCCCCC [TOP, tri-n-octylphosphine, reference compound] | < 0.01 | < 0.01 |  |
| CCCCCCCCCCC=O [undecanal] |  |  | Kpartition (nonpolar to polar phase) ([1]; 1-decene/acetonitrile): 2.3; Kpartition (nonpolar to polar phase) [1, 6]: 3.3; Kpartition (nonpolar to polar phase) ([1]; cyclohexane/acetonitrile): 2.0; Kpartition (nonpolar to polar phase) ([1]; hexane/3-methyl-2-oxazolidinone): 2.6; Kpartition (nonpolar to polar phase) ([1]; nonane/acetonitrile): 1.9 |
| c1ccc(-c2ccccc2Op2oc3ccccc3c3ccccc3o2)c(Op2oc3ccccc3c3ccccc3o2)c1 [Ligand M] | 25 | 25 |  |
| O=P(CCP(c1ccccc1)c1ccccc1)(c1ccccc1)c1ccccc1 [Ligand D] | 920 | 920 | Kpartition [2, 7]: 60; Kpartition [2, 8]: 440; Kpartition [2, 9]: 80 |
| O=P(CP(c1ccccc1)c1ccccc1)(c1ccccc1)c1ccccc1 [Ligand E] | 80 | 620 | Kpartition [2, 7]: 50; Kpartition [2, 8]: 620 |
| COc1ccc(P(c2ccc(OC)cc2)c2ccc(OC)cc2)cc1 [Ligand G] | 11 | 11 |  |
| c1ccc(P(c2ccccc2)c2ccccc2)cc1 [TPP, triphenylphosphine, reference compound] | 1.3 | 1.3 | Kpartition [2, 10]: 4.3; Kpartition [2, 7]: 5.9; Kpartition [2, 8]: 2.3; Kpartition [2, 11]: 0.4; Kpartition [2, 9]: 3 |
| O=[N+]([O-])c1ccc(Op2oc3ccccc3c3ccccc3o2)cc1 [Ligand R] | 22 | 22 | Kpartition in catalyst mixture [3]: 5.3 |
| CCCCCCCCCCCCC=O [tridecanal] |  |  | Kpartition (nonpolar to polar phase) ([1]; 1-dodecene/acetonitrile): 4.3 |
| N#Cc1cccc(P(c2cccc(C#N)c2)c2cccc(C#N)c2)c1 [Ligand B] | 470 | 470 | Kpartition [2, 7]: 470; Kpartition [2, 8]: 550; Kpartition [2, 9]: 960 |
| N#Cc1cccc(Op2oc3ccccc3c3ccccc3o2)c1 [Ligand N] | 28 | 28 |  |
| c1ccc(P(c2ccccc2)C2CCCCC2)cc1 [CHDPP, cyclohexyldiphenylphosphine, reference compound] | 0.5 | 0.4 | Kpartition [2, 10]: 1.2; Kpartition [2, 7]: 2; Kpartition [2, 8]: 0.5; Kpartition [2, 11]: 0.4 |
| N#Cc1ccc(Op2oc3ccccc3c3ccccc3o2)cc1 [Ligand P] | 30 | 30 |  |
| COc1cc(C(C)(C)C)c2op(Oc3ccc([N+](=O)[O-])cc3)oc3c(C(C)(C)C)cc(OC)cc3c2c1 [Ligand Q] | 5.3 | 5.3 |  |
| CCCCCCCCCCCC=O [dodecanal] |  |  | Kpartition (nonpolar to polar phase) [1, 6]: 4.6; Kpartition (nonpolar to polar phase) ([1]; heptane/acetonitrile): 4.4 |
| N#Cc1ccc(P(c2ccc(C#N)cc2)c2ccc(C#N)cc2)cc1 [Ligand A] | 430 | 430 | Kpartition [2, 10]: > 1000; Kpartition [2, 7]: > 1000; Kpartition [2, 8]: > 1000; Kpartition [2, 11]: > 1000; Kpartition [2, 9]: > 1000 |
| COc1cc(C(C)(C)C)c2op(Oc3ccccc3C#N)oc3c(C(C)(C)C)cc(OC)cc3c2c1 [Ligand O] | 5.2 | 5.2 |  |
| CCCCCCCCCCCCCCP(c1ccc(C#N)cc1)c1ccc(C#N)cc1 [Ligand I] | 7 | 7 |  |
| C1CCC(P(C2CCCCC2)C2CCCCC2)CC1 [TCHP, tricyclohexylphosphine, reference compound] | 0.2 | < 0.2 |  |
| COc1cc(-c2cc(OC)cc(C(C)(C)C)c2Op2oc3ccc(OC)cc3c3cc(OC)ccc3o2)c(Op2oc3ccc(OC)cc3c3cc(OC)ccc3o2)c(C(C)(C)C)c1 [Ligand S] | greater than 100 |  |  |
| N#CCCP(CCC#N)CCC#N [Ligand F] | > 100 | > 100 |  |
| N#CCCP(CCC#N)c1ccccc1 [Ligand L] | > 100 |  | Kpartition [2]: > 100 |
